Earlier results as cited in patent US20220225651A1, “STEVIOL GLYCOSIDE AND FERULIC ACID FORMULATIONS FOR FOOD AND BEVERAGES” (Sweegen, Inc., priority 2021, published 2022).

Settings: sweetness relative to sucrose

Compound | times sweeter than sucrose
Rebaudioside C | 40-60 times
C=C1C[C@@]23CC[C@H]4[C@@](C)(CCC[C@@]4(C)C(=O)O[C@@H]4O[C@H](CO)[C@@H](O)[C@H](O)[C@H]4O)[C@@H]2CC[C@]1(O[C@@H]1O[C@H](CO)[C@@H](O)[C@H](O)[C@H]1O[C@@H]1O[C@@H](C)[C@H](O)[C@@H](O)[C@H]1O)C3 [Dulcoside A] | about 30 times
C=C1C[C@@]23CC[C@H]4[C@@](C)(CCC[C@@]4(C)C(=O)O[C@@H]4O[C@H](CO)[C@@H](O)[C@H](O)[C@H]4O)[C@@H]2CC[C@]1(O[C@@H]1O[C@H](CO)[C@@H](O)[C@H](O)[C@H]1O[C@@H]1O[C@H](CO)[C@@H](O)[C@H](O)[C@H]1O)C3 [stevioside] | 100-150 times
